Assay [1] concerns Mesenchymal stem cells. As to the kind of experiment: Induction of adiponectin secretion in human differentiated BMMSC cells measured at 5 day in the presence of IDX induction medium by ELISA. The class given is functional, cell-based. The note with it: for pEC50: 120 h. A general note: ELISA stands for enzyme-linked immunosorbent assay.
Assay [2] has as its system HaCaT. The assay is described as follows: Antiinflammatory activity against human HaCaT cells assessed as inhibition of UVB irradiation-induced PGE2 production at 10 uM measured after 2 hrs by ELISA. Type of assay: functional, cell-based.
The subject of assay [3] is HaCaT. As to the kind of experiment: Antiinflammatory activity against human HaCaT cells assessed as inhibition of UVB irradiation-induced PGE2 production measured after 2 hrs by ELISA. The class given is functional, cell-based. As to conditions: light or radiation study.
Assay [4] deals with Mesenchymal stem cells. As to the kind of experiment: Induction of adiponectin secretion in human differentiated BMMSC cells assessed as increase in lipid droplet accumulation at 300 uM in the presence of IDX induction medium by Oil red O staining based inverted phase contrast microscope analysis. The class given is functional, cell-based.
Assay [5] concerns Mesenchymal stem cells. The assay is described as follows: Induction of adiponectin secretion in human differentiated BMMSC cells at 30 uM in the presence of IDX induction medium and measured on 5 day by ELISA relative to control. Type of assay: functional.
The subject of assay [6] is Mesenchymal stem cells. The assay is described as follows: Induction of adiponectin secretion in human differentiated BMMSC cells assessed as increase in size of lipid droplet at 30 uM in the presence of IDX induction medium by Oil red O staining based inverted phase contrast microscope analysis. Type of assay: functional, cell-based.
For assay [7], the system named is Mesenchymal stem cells. As to the kind of experiment: Induction of adiponectin secretion in human differentiated BMMSC cells assessed as increase in number of lipid droplet at 30 uM in the presence of IDX induction medium by Oil red O staining based inverted phase contrast microscope analysis. The class given is functional, cell-based.

pEC50, pIC50: −log10 of the molar value. The source made the active and inactive calls. The rule behind the calls is not given here.

Take `OCCc1c[nH]c2ccccc12` [TRYPTOPHOL]: in the assay on Mesenchymal stem cells [1] (DDE = dose-dependent effect), the Activity result was “Dde”. Further, the result in the assay on HaCaT [2] and with Mesenchymal stem cells [4] was Active. Besides, the pIC50 (commonly −log10 of the IC50, conventionally taken in molar units) in the assay with HaCaT [3] is 5.18.

Regarding `CC(C)C[C@H]1NC(=O)[C@H](C)[C@H](O)C[C@@H]([C@@H](C)CCCC[C@@H](C)O)OC(=O)[C@H](CC(C)C)N(C)C1=O`, the Activity with Mesenchymal stem cells [5] stood at 116%. The result with Mesenchymal stem cells [6] and with Mesenchymal stem cells [7] was Active. Besides, the pEC50 (commonly the negative decadic logarithm of the EC50, by convention in mol/L) in the assay with Mesenchymal stem cells [1] is 4.53.

`CCC(C)/C=C/CC(C)/C=C/C(=O)O[C@@H]1[C@@H](O)[C@H](c2c(C)cc(O)cc2O)O[C@H](CO)[C@H]1O` (stereo partly drawn): the Activity with Mesenchymal stem cells [5] is recorded as 78%.

With `Oc1ccc(/C=C/c2cc(O)cc(O)c2)cc1` [RESVERATROL], in the assay on HaCaT [3], the pIC50 was 4.74.

In the case of `CC(=O)Oc1ccccc1C(=O)O` [ASPIRIN], the pEC50 in the assay on Mesenchymal stem cells [1] is < 3.52. Further, in the assay on HaCaT [3], the pIC50 is 4.67. Further, in the assay with Mesenchymal stem cells [4], the outcome was Active.

Consider `CC[C@H](C)[C@H]1C(=O)O[C@H]([C@@H](C)CCCC[C@@H](C)O)C[C@@H](O)[C@@H](C)C(=O)N[C@H](Cc2ccccc2)C(=O)N1C`, for which, in the assay with Mesenchymal stem cells [5], the Activity was 123%. Also, the result in the assay on Mesenchymal stem cells [6] and in the assay with Mesenchymal stem cells [7] was Active. Further, the pEC50 in the assay on Mesenchymal stem cells [1] was 4.64.

Turning to `COc1ccc(Cl)cc1C(=O)NCCc1ccc(S(=O)(=O)NC(=O)NC2CCCCC2)cc1` [GLYBURIDE], in the assay on Mesenchymal stem cells [1], the pEC50 was 5.55.

The values above are taken from ChEMBL document CHEMBL5131496, “Adiponectin-Secretion-Promoting Cyclic Peptide-Polyketide Hybrids from a Halophyte-Associated Fungus, Colletotrichum gloeosporioides JS0417” (J Nat Prod, 2022).
